Data set [1] relates to body weight. As to the kind of experiment: Body weight loss in mice on ad lib. 'cafeteria' diet, 3 wks repeated p.o. In kind it is in vivo, mouse. Conditions: approximate, vehicle-corrected, AZ data on file.
The target of data set [2] is mCB1R (Mus musculus, UniProt P47746). In kind it is biochemical.
In data set [3] the test system is CB1R. As to the kind of experiment: PET CB1R occupancy with [11C]SD5024 in striatum.
Data set [4] has as its system CB1R. The data set is described as follows: Change in [11C]SD5024 binding in pons after CB1R antagonists. In kind it is in vivo, cynomolgus monkeys (Macaca fascicularis).
Data set [5] relates to body weight. The data set is described as follows: 10-day Phase I Multiple Ascending Dose. The following applies: 10-day Phase I MAD; doses giving plasma concentrations comparable to ~20–30% brain CB1R occupancy; AZ data on file. It counts as in vivo, human.
For data set [6], the target named is hCB1R (Homo sapiens, UniProt P21554). It counts as biochemical.
Data set [7] relates to body weight / suicidality. Conditions: ref FDA, 2007, cited from earlier work.
The conditions of data set [8]: cited from earlier work.
Data set [9] has as its system CB1R. The following applies: across species, ref Fong et al., 2007, Burns et al., Addy et al., 2008a, Proietto et al., 2010, Aronne et al., Hadcock et al.; cited from earlier work.
Data set [10] in a line: Whole brain uptake of radioligand. Conditions: i.v. bolus of radioligand, 42 PET measurements. It counts as in vivo, cynomolgus monkeys (Macaca fascicularis).
The test system of data set [11] is CB1R. The following applies: binding to CB1R; ref Donohue et al., 2008a,b; cited from earlier work.

The values that follow come from publication PMC4678037 (Neuropharmacology, 2015).

Read-outs that look alike come from different tables or passages of the source. Marks after values point to notes of the source that are not given here.

The term Ki denotes the equilibrium dissociation constant of an inhibitor or competing ligand from its target. As usually defined, the IC50 is the point on the concentration scale where inhibition reaches its midpoint.

Sequence of mCB1R (P47746 whole entry): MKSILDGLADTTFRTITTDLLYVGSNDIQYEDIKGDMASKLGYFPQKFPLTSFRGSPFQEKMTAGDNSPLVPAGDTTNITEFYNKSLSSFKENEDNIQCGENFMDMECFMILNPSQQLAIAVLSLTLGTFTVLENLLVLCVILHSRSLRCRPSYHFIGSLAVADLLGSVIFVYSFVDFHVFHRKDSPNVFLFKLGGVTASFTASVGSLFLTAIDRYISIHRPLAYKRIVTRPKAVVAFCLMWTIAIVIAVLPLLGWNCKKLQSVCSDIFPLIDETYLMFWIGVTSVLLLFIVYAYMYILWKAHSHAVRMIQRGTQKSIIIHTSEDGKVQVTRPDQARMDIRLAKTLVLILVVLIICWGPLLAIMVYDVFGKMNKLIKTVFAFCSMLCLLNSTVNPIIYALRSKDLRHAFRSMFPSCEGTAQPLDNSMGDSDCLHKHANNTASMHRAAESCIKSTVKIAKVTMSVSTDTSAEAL
Sequence of hCB1R (P21554 whole entry): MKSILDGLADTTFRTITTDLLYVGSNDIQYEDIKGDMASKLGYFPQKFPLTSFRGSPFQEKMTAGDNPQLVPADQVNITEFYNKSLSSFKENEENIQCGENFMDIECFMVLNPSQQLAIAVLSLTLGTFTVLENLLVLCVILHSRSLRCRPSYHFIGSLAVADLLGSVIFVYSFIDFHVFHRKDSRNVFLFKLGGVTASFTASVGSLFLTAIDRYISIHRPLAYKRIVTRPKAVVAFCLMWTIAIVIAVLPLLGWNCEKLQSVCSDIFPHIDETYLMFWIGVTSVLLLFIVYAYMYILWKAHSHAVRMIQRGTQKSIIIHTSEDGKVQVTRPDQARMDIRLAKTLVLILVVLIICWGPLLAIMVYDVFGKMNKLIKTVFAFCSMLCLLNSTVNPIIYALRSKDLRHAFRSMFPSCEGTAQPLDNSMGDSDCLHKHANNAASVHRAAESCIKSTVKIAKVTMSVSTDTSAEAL

Turning to `Cc1c(C(=O)NN2CCCCC2)nc(-c2ccc(Cl)cc2Cl)n1-c1ccc(OS(=O)(=O)CCC(F)(F)F)cc1` [AZ compound 1, 4-[2-(2,4-Dichlorophenyl)-5-methyl-4-(piperidin-1-ylcarbamoyl)-1H-imidazol-1-yl]phenyl 3,3,3-trifluoropropane-1-sulfonate], in data set [1], the “Maximal in vivo body weight loss (% of baseline)” value was ~23–25% of baseline. Also, the Ki in data set [2] is 0.03 ± 0.002 nM; in [6], 0.19 ± 0.01 nM. Further, the “Receptor Occupancy” value is on record as 0.4 ^* % in data set [3] (striatum, 0.03 mg/kg i.v., monkey 1, plasma 0 μmol/L, data for 50–93 min); 35% in [3] (striatum, 0.3 mg/kg i.v., monkey 1, plasma 0.038 μmol/L, 50–122 min); 23 ^* % in data set [3] (striatum, 0.3 mg/kg i.v., monkey 2, plasma 0.055 μmol/L, data for 50–93 min); 73% in [3] (striatum, 1.0 mg/kg i.v., monkey 2, plasma 0.154 μmol/L, 50–122 min); 88% in data set [3] (striatum, 2.0 mg/kg i.v., monkey 3, plasma 0.999 μmol/L, 50–122 min); 99% in data set [3] (striatum, 6.0 mg/kg i.v., monkey 3, plasma 2.220 μmol/L, 50–122 min). Further, in data set [4] (6.0 mg/kg (highest dose)), the “AUC50–122min difference compared to baseline” value (from here on “AUC50–122min difference”) was −20%. The “Effect on body weight” value in data set [5] is “tended to reduce body weight”.

With `Cc1c2c(n(-c3ccc(Cl)cc3Cl)c1-c1ccc(OS(=O)(=O)CCC(F)(F)F)cc1)CCN(N1CCCCC1)C2=O` [AZ compound 2, 4-[1-(2,4-Dichlorophenyl)-3-methyl-4-oxo-5-piperidin-1-yl-4,5,6,7-tetrahydro-1H-pyrrolo[3,2-c]pyridin-2-yl]phenyl 3,3,3-trifluoropropane-1-sulfonate], the “Maximal in vivo body weight loss (% of baseline)” value in data set [1] is recorded as ~30% of baseline. Further, the Ki was 0.02 ± 0.001 nM in data set [2] and 0.2 ± 0.01 nM in [6]. Moreover, the “Receptor Occupancy” value in data set [3] (striatum, 0.06 mg/kg i.v., monkey 2, plasma 0.023 μmol/L, 50–122 min) was 0.6%; in data set [3] (striatum, 0.2 mg/kg i.v., monkey 1, plasma 0.050 μmol/L, 50–122 min), −10%; in data set [3] (striatum, 0.2 mg/kg i.v., monkey 4, plasma 0.057 μmol/L, 50–122 min), 9.2%; in data set [3] (striatum, 0.25 mg/kg i.v., monkey 5, plasma 0.083 μmol/L, 50–122 min), 1.4%; in [3] (striatum, 0.3 mg/kg i.v., monkey 2, plasma 0.143 μmol/L, 50–122 min), 35%; in data set [3] (striatum, 0.6 mg/kg i.v., monkey 5, plasma 0.252 μmol/L, 50–122 min), 64%. Further, the “Receptor Occupancy” value in data set [3] (striatum, 1.0 mg/kg i.v., monkey 4, plasma 0.401 μmol/L, 50–122 min) worked out at 69%; in data set [3] (striatum, 2.0 mg/kg i.v., monkey 1, plasma […], 50–122 min) it was 78%. Moreover, the “AUC50–122min difference” value in data set [4] (2.0 mg/kg (highest dose)) was −23%.

As to `Cc1c2c(n(-c3ccc(F)cc3Cl)c1-c1ccc(OS(=O)(=O)CCC(F)(F)F)cc1)CCN(N1CCCCC1)C2=O` [AZ compound 3, 4-[1-(2-Chloro-4-fluorophenyl)-3-methyl-4-oxo-5-piperidin-1-yl-4,5,6,7-tetrahydro-1H-pyrrolo[3,2-c]pyridin-2-yl]phenyl 3,3,3-trifluoropropane-1-sulfonate], in data set [1], the “Maximal in vivo body weight loss (% of baseline)” value is ~30% of baseline. Besides, the results for the Ki in data set [2] and in data set [6] were 0.03 ± 0.002 nM and 0.24 ± 0.01 nM, respectively. Besides, the “Receptor Occupancy” value in [3] (striatum, 0.02 mg/kg i.v., monkey 4, plasma 0.001 μmol/L, 50–122 min) is −18%; in [3] (striatum, 0.06 mg/kg i.v., monkey 3, plasma […], 50–122 min) it was 0.7%; in data set [3] (striatum, 0.06 mg/kg i.v., monkey 4, plasma 0.020 μmol/L, 50–122 min) it was −12%; in data set [3] (striatum, 0.2 mg/kg i.v., monkey 4, plasma 0.084 μmol/L, 50–122 min), 14%; in data set [3] (striatum, 0.4 mg/kg i.v., monkey 3, plasma 0.245 μmol/L, 50–122 min), 59%; in data set [3] (striatum, 0.6 mg/kg i.v., monkey 4, plasma 0.275 μmol/L, 50–122 min), 82%. In addition, in data set [4] (0.6 mg/kg (highest dose)), the “AUC50–122min difference” value was −23%.

As to `Cc1c(C(=O)NN2CCCCC2)nn(-c2ccc(Cl)cc2Cl)c1-c1ccc(Cl)cc1` [Rimonabant, 5-(4-Chlorophenyl)-1-(2,4-dichloro-phenyl)-4-methyl-N-(piperidin-1-yl)-1H-pyrazole-3-carboxamide], in data set [1], the “Maximal in vivo body weight loss (% of baseline)” value was ~20% of baseline. In addition, in data set [7] (5 mg dose vs. selected 20 mg dose), the “Suicidality in the clinic” value was “absence of a detectable rise in suicidality”. The “Weight loss in the clinic” value in data set [7] (5 mg dose) is on record as “significant (albeit modest) weight loss”. Also, the Protein bound in data set [8] (ref FDA, 2007) is on record as more than 99.9%.

With `C[C@H](NC(=O)C(C)(C)Oc1ccc(C(F)(F)F)cn1)[C@@H](Cc1ccc(Cl)cc1)c1cccc(C#N)c1` [Taranabant, N-[(2S,3S)-4-(4-Chlorophenyl)-3-(3-cyanophenyl)-2-butanyl]-2-methyl-2-{[5-(trifluoromethyl)-2-pyridinyl]oxy}propanamide, reference compound], the “Maximal in vivo body weight loss (% of baseline)” value in [1] is ~30% of baseline. In data set [2], the affinity, expressed as Ki, was 0.01 ± 0.001 nM. Besides, in data set [9], the “CB1R occupancy that may be sufficient for appetite- and body weight-reducing efficacy” value is 10 to 40%. The “CB1R occupancy at exposures corresponding to those needed for optimal clinical efficacy” value in data set [3] (non-human primates, typically around) is on record as 20–30%. Further, the “Receptor Occupancy” value is 1.7% in [3] (striatum, 0.005 mg/kg i.v., monkey 7, plasma 0.002 μmol/L, 50–122 min); −3.9% in [3] (striatum, 0.015 mg/kg i.v., monkey 7, plasma 0.010 μmol/L, 50–122 min); 35% in [3] (striatum, 0.05 mg/kg i.v., monkey 1, plasma 0.015 μmol/L, 50–122 min); 94% in data set [3] (striatum, 0.2 mg/kg i.v., monkey 1, plasma 0.093 μmol/L, 50–122 min). Besides, in data set [3] (striatum, present study), the “Plasma concentration corresponding to 20–30% CB1R occupancy” value was 0.01 to 0.02 µmol/L. Further, the Protein bound in data set [8] (ref Li et al., 2010) is more than 98%. Further, the “AUC50–122min difference” value in data set [4] (0.2 mg/kg (highest dose)) was −29%.

Take `N#Cc1ccc(S(=O)(=O)N=C(N)N2CC(c3ccccc3)C(c3ccc(Cl)cc3)=N2)cc1` (stereo not drawn) [[^11C]SD5024]: in data set [10], the “Peak radioactivity in brain (range)” value is 2.6 to 4.2 % ID. Besides, in [11], the IC50 was 2.8 nM and the Ki is 0.5 nM.
